Several values for one entry are separate records, joined by “and”; a condition that tells them apart may be missing. Equal entries are not always repeated.
Experiments:
CBE-N2a cells [1] = test: Cytosolic calcium level measurement with Fura-2 after caffeine; type: cell-based, mouse; details: CBE-N2a cells vs untreated; dantrolene 12.5 μM, ryanodine 10 μM, G6 0.8 μM, 5 days; caffeine 10 mM
Method: (§4) N2a cells were maintained in DMEM/10% FBS (Gibco) medium. Neuronal differentiation of N2a was carried out in the differentiation medium containing 0.5% FBS, 10 μM retinoic acid, 50 ng/ml GDNF (Alomore lab) and 1 mM dbcAMP in DMEM for 3 days (37). The differentiated N2a cells were treated with 2 mM CBE for 5 days in the differentiation medium. […] The medium with the reagents was changed every 2 days. […] Cell viability after each drug treatment was measured by CellTiter-Fluoirm Cell Viability assay (Promega). […] The cells were from same passage and treated at the same time for all the experiments.
Intracellular calcium levels were determined using the Fura-2 QBT Calcium Kit (Molecular Devices, Sunnyvale, Calif.) on 96 well plates by M5 SpectraMax plate reader (Molecular Devices). N2a cells were seeded in each well (20,000/well) with differentiation medium (0.5% FBS, DMEM, 10 AM retinoic acid, 1 mM dbcAMP) for 72 h (37). […] The cell medium was replaced every two days. The treated cells were incubated with Fura-2 QBT dye at 37 C for 1 h for Fura-2 QBT uptake (Fura2 QBT® calcium kit protocol, Molecular Devices). Caffeine (10 mM) was used as an ER calcium efflux stimulant in the assay (38,39). The plate reader setting was 340/380 nm (excitation) and 510 nm (emission). Baseline calcium levels were measured prior to caffeine addition (−30 s). Cytosolic calcium levels were recorded every 30 s for duration of 300 s after addition of caffeine. Relative cytosolic calcium levels were determined with the values at 300 s endpoint minus Os baseline. Relative cytosolic calcium level [Fura-2 AF/F (340/380510 nm] for control or treated cells was calculated by Fura-2 fluorescence unit (FU) measured at 340 nm/510 nm (AF=RFU/340 at 300 s end point minus baseline RFU/340 at 0 s) divided by FU at 380 nm/510 nm (F=RFU/380 at 300 s-baseline RFU/380 at 0 s) (Fura2 QBT® calcium kit protocol, Molecular Devices) and normalized to protein level in cells. Data were collected and analysed by SoftMax Pro software (Molecular Devices) and graphical charts were generated by Graphpad Prism 6.0.

CBE-N2a cells [2] = test: Substrate (GC, GS) levels in nGD cell model (CBE-N2a) by ESI-LC-MS/MS; type: cell-based, mouse; details: 5 days
Method: (§1) N2a cells were maintained in DMEM/10% FBS (Gibco) medium. Neuronal differentiation of N2a was carried out in the differentiation medium containing 0.5% FBS, 10 μM retinoic acid, 50 ng/ml GDNF (Alomore lab) and 1 mM dbcAMP in DMEM for 3 days (37). The differentiated N2a cells were treated with 2 mM CBE for 5 days in the differentiation medium. […]. The medium with the reagents was changed every 2 days. The differentiation status of the neuronal cells was confirmed by anti-Map2 (mature neuron) or anti-Nestin (undifferentiated neuronal cells) antibody staining. Cell viability after each drug treatment was measured by CellTiter-Fluoirm Cell Viability assay (Promega). […]. The cells were from same passage and treated at the same time for all the experiments.
(§2) Glycosphingolipids in mouse brains and N2a cells were extracted with chloroform and methanol as described (83). GC and GS content in the extracts was analysed by ESI-LC-MS/MS using a Waters Quattro Micro API triple quadrupole mass spectrometer (Milford, Mass.) interfaced with Acquity UPLC system as described (35). The concentration of GC and GS in the brain was normalized to mg tissue weight and in the cells was normalized by mg protein in the cell lysate.

N2a cells = test: Substrate (GC, GS) levels in N2a cells by ESI-LC-MS/MS; type: cell-based, mouse; details: G6 0.8 μM, 5 days
Method: as §1, §2

CBE-N2a cells [3] = test: Seahorse mitochondrial function assay (OCR) in cells; type: cell-based, mouse; details: CBE-N2a cells vs untreated CBE-N2a; dantrolene 12.5 μM, G6 0.8 μM
Method: as §4
Cell numbers were determined using a haemocytometer. Prior to mitochondrial function assay on XF96 Extracellular Flux Analyzers (Seahorse Biosciences), the cells in the wells of XF96 assay plates were washed by gently adding warm assay medium to the side of each well. […] The respiration parameters were calculated by subtracting the average respiration rates before and after the addition of the electron transport inhibitors: oligomycin, FCCP and antimycin A. The parameters include basal respiration (baseline respiration minus antimycin A post injection respiration), ATP production (baseline respiration minus oligomycin post injection respiration), and maximal respiratory (FCCP stimulated respiration minus antimycin A post injection respiration). […]

ryanodine receptor = details: vendor listing (Sigma); cited from earlier work
CAMK IV = test: Immunoblot of CAMK IV in 4L;C* cerebrum; type: in vivo, mouse; parameters: reference not given here; details: untreated 61% of WT level
Method: (§3) Half of mice brain (sagittal cut) tissues were homogenized in M-PER Mammalian Protein Extraction Reagent and subjected to electrophoresis. Ryr proteins (−500 kD) in tissues lysate were separated on 3-8% NuPAGE gel running at 90V for 12 h at 4° C. in acetate buffer. 13-actin was resolved on 4-12% Bis-Tris gel. The proteins were transferred to PVDF membrane using iBlot 2 gel transfer device following manufacturer's instructions. The blots were incubated with anti-mouse Ryr3 monoclonal antibody (1/250) or anti-13-actin (1:5000) overnight at 4° C. in 1.5% BSA/1.5% milk/PBS buffer. LC3, CAMK IV and calmodulin were separated on 16% Tris-glycine gel (Novex) and detected by anti-LC3 (1:1000), anti-CAMK IV (1:500) or anti-CAM (1:1000), respectively. The signals were detected with either ECL detection reagent or AP Conjugate Substrate Kit according to manufacturer's instructions. Band intensities on immunoblots were quantitated by Image J (NIH, Baltimore, Va.).

[4] = Body and organ weights of treated mice; type: in vivo, mouse; details: IP 10 mg/kg three days per week
4L;C* mice [5] = test: Gait analysis in nGD mouse model
Method: Progression of the neurobehavioural phenotype was assessed by gait analysis to determine sensorimotor function (77,78). Mice were trained to walk through a narrow alley leading into their home-cage. Once trained, paper was placed along the alley floor and the hind paws of each mouse were brushed with nontoxic paint. The mice were then placed at the beginning of the alley. As they walked into their home-cage they left their paw prints on the paper underneath. Stride length and width were determined by measuring the distance between hind paw prints. The 4L;C* and control mice, untreated and non-4L;C* littermates were tested for gait at 30 and 40 days of age.

Ryr1 and Ryr3 = details: reference 58; cited from earlier work
Ryr3 [6] = test: Immunoblot of Ryr3 in 4L;C* cerebrum; type: in vivo, mouse; details: 44 days of age, untreated 9%
Method: as §3

Ryr3 [7] = test: Immunoblot of Ryr3 in CBE-N2a cells; type: cell-based, mouse; details: dantrolene 12.5 μM, untreated 47%
Method: as §1
as §3, with “13-actin was resolved on 4-12% Bis-Tris gel. The proteins were transferred to PVDF membrane using iBlot 2 gel transfer device following manufacturer's instructions. The blots were incubated with anti-mouse Ryr3 monoclonal antibody (1/250) or anti-13-actin (1:5000) overnight at 4° C. in 1.5% BSA/1.5% milk/PBS buffer.” left out

4L;C* mice [8] = test: Survival / life span in nGD mouse model; details: IP 10 mg/kg three days per week
Method: The data are presented as mean±SEM and were analysed by Student's t-test or one-way ANOVA with post-hoc Tukey test using GraphPad Prism 6. The level of significance was set at P<0.05. Survival analysis was performed using Kaplan-Meier and the Mantel-Cox tests.

| Molecule | Cytosolic calcium level above baseline after caffeine [Fura-2 ΔF/F] (CBE-N2a cells [1]) | GS level (CBE-N2a cells [2]; CBE-N2a cells vs untreated) | GC reduction to % of untreated levels (CBE-N2a cells [2]; CBE-N2a cells, G6 0.8 μM) [%] | GC reduction to % of untreated levels (N2a cells) [%] | Oxygen Consumption Rate (OCR: ATP production, basal respiration, maximal respiration) (CBE-N2a cells [3]) | Ryanodine receptor antagonist concentration (ryanodine receptor) [µM] | CAMK IV expression increase (CAMK IV) [%] | Body or organ weights [4] | Base stride width (4L;C* mice [5]; IP 10 mg/kg three days per week from postnatal day 5, 30 and 40 days of age, vs untreated) | Stride length increase compared to untreated 4L;C* mice (4L;C* mice [5]; IP 10 mg/kg three days per week, 40 days of age) [%] | Ryr specificity (Ryr1 and Ryr3) | Ryr3 protein level, % of WT (Ryr3 [6]) [%] | Ryr3 protein level, % of WT level (Ryr3 [7]) [%] | GC and GS levels (CBE-N2a cells [2]; CBE-N2a cells, dantrolene 12.5 μM, G6 0.8 μM) | Life span / survival prolonged compared to untreated 4L;C* mice (4L;C* mice [8]; 10 mg/kg) | Median survival days (4L;C* mice [8]; untreated 44 days) [days] |
| --- | --- | --- | --- | --- | --- | --- | --- | --- | --- | --- | --- | --- | --- | --- | --- | --- |
| CC(C)(NC(=O)OC1CN2CCC1CC2)c1cccc(-c2ccc(F)cc2)c1 (stereo not drawn) [G6] | significantly lower | significantly decreased | 26 | 7 | significant increases |  |  |  |  |  |  |  |  |  |  |  |
| Ryanodine | significant reduction |  |  |  |  | > 10 |  |  |  |  |  |  |  |  |  |  |
| O=C1CN(/N=C/c2ccc(-c3ccc([N+](=O)[O-])cc3)o2)C(O)=N1 [Dantrolene] | significantly reduced |  |  |  |  |  | 28 | did not affect | significantly reduced | 30 | specific to Ryr1 and Ryr3 | 77 | 76 | did not affect | 12.3% and 12.7% | 50 |

— patent publication US10751387B2, “Pharmacological therapy for neuronopathic Gaucher disease” (priority 2016, dated 2020)
